Data as given in patent US4083993A, “Compositions containing benzoylacetonitrile and method of use to treat inflammation” (American Cyanamid Co., priority 1977, dated 1978).

System: adjuvant induced arthritis
Experiment: adjuvant induced arthritis in rats (Freund's adjuvant, injected right hind paw; chronic inflammation with joint destruction)
Type: in vivo, royal Hart, Wistar strain rats
Conditions: oral, once daily days 0-13
Method: Groups of three royal Hart, Wistar strain rats weighing 200+10 grams each were injected intradermally in the right hind paw with Freund's adjuvant (dried human tubercle bacilli in a mineral oil vehicle) at a dose of 2 mg./kg. of body weight. Test compounds were administered orally in a 1.5% starch vehicle at various doses once daily on days 0 through 13 post challenge. Control rats were treated in a similar manner, but given only starch vehicle. On the 14th and 21st day post challenge the diameter of the injected paw (primary lesion) was measured by micrometer caliper. The volume of inflamed paws were estimated from these measurements and the results are expressed as percent inhibition of swelling as compared to controls. At the same time, the other inflamed sites, such as ears, paws and tail (secondary lesions) were observed and each rat was graded as to degree of inflammation and swelling present. The grading is based on a scale of 0 to 24, where 0 represents a complete absence of induced arthritic nodules and 24 represents the maximum degree of inflammation. The mean grade for each treated group is calculated and the effects of each compound are expressed as percent inhibition of the control grade. Table I records the results of these tests conducted with benzoylacetonitrile, o-fluorobenzoylacetonitrile, m-fluorobenzoylacetonitrile, p-fluorobenzoylacetonitrile, and known anti-inflammatory agents. The active compounds of the present invention suppress the progression of the arthritis and associated joint deterioration.

[1] = 50 mg./kg. of body weight, day 14
[2] = 50 mg./kg. of body weight, day 21
[3] = 25 mg./kg. of body weight, day 14
[4] = 25 mg./kg. of body weight, day 21
[5] = 100 mg./kg. of body weight, day 14
[6] = 100 mg./kg. of body weight, day 21
[7] = 200 mg./kg. of body weight, day 14
[8] = 200 mg./kg. of body weight, day 21
[9] = 400 mg./kg. of body weight, day 14
[10] = 400 mg./kg. of body weight, day 21

Compound	Dead/Treated At 21 Days (50 mg./kg. of body weight)	% Inhibition of Swelling (primary lesion) [1]	Mean Weight Gain [1]	% Inhibition of Swelling (primary lesion) [2]	Mean Weight Gain [2]	Dead/Treated At 21 Days (25 mg./kg. of body weight)	% Inhibition of Control Grade (secondary lesion) [3]	% Inhibition of Swelling (primary lesion) [3]	Mean Weight Gain [3]	% Inhibition of Control Grade (secondary lesion) [4]	% Inhibition of Swelling (primary lesion) [4]	Mean Weight Gain [4]	% Inhibition of Control Grade (secondary lesion) [1]	% Inhibition of Control Grade (secondary lesion) [2]	Dead/Treated At 21 Days (100 mg./kg. of body weight)	% Inhibition of Control Grade (secondary lesion) [5]	% Inhibition of Swelling (primary lesion) [5]	Mean Weight Gain [5]	% Inhibition of Control Grade (secondary lesion) [6]	% Inhibition of Swelling (primary lesion) [6]	also measured
N#CCC(=O)c1cccc(F)c1 [m-Fluorobenzoylacetonitrile, m-fluorobenzoylacetonitrile]	0/21	40%	43 grams	27%	37 grams	–	–	–	–	–	–	–	–	–	–	–	–	–	–	–	–
N#CCC(=O)c1ccccc1F [o-Fluorobenzoylacetonitrile, o-fluorobenzoylacetonitrile]	1/18	63%	71 grams	49%	72 grams	–	–	–	–	–	–	–	–	–	–	–	–	–	–	–	–
N#CCC(=O)c1ccccc1 [Benzoylacetonitrile, benzoylacetonitrile]	6/54	51%	53 grams	42%	59 grams	3/36	40%	54%	54 grams	14%	33%	56 grams	52%	26%	5/36	70%	63%	49 grams	43%	48%	Mean Weight Gain [6]: 65 grams; Dead/Treated At 21 Days (200 mg./kg. of body weight): 2/18; % Inhibition of Control Grade (secondary lesion) [7]: 70%; % Inhibition of Swelling (primary lesion) [7]: 73%; Mean Weight Gain [7]: 56 grams; % Inhibition of Control Grade (secondary lesion) [8]: 43%; % Inhibition of Swelling (primary lesion) [8]: 48%; Mean Weight Gain [8]: 81 grams; Dead/Treated At 21 Days (400 mg./kg. of body weight): 3/18; % Inhibition of Control Grade (secondary lesion) [9]: 84%; % Inhibition of Swelling (primary lesion) [9]: 81%; Mean Weight Gain [9]: 31 grams; % Inhibition of Control Grade (secondary lesion) [10]: 82%; % Inhibition of Swelling (primary lesion) [10]: 72%; Mean Weight Gain [10]: 72 grams
N#CCC(=O)c1ccc(F)cc1 [p-Fluorobenzoylacetonitrile, p-fluorobenzoylacetonitrile]	2/36	56%	61 grams	39%	58 grams	1/18	25%	33%	55 grams	0%	17%	48 grams	13%	0%	4/18	44%	46%	63 grams	10%	32%	Mean Weight Gain [6]: 71 grams; Dead/Treated At 21 Days (200 mg./kg. of body weight): 3/18; % Inhibition of Control Grade (secondary lesion) [7]: 63%; % Inhibition of Swelling (primary lesion) [7]: 52%; Mean Weight Gain [7]: 67 grams; % Inhibition of Control Grade (secondary lesion) [8]: 16%; % Inhibition of Swelling (primary lesion) [8]: 32%; Mean Weight Gain [8]: 62 grams; Dead/Treated At 21 Days (400 mg./kg. of body weight): 3/18; % Inhibition of Control Grade (secondary lesion) [9]: 72%; % Inhibition of Swelling (primary lesion) [9]: 75%; Mean Weight Gain [9]: 42 grams; % Inhibition of Control Grade (secondary lesion) [10]: 45%; % Inhibition of Swelling (primary lesion) [10]: 63%; Mean Weight Gain [10]: 64 grams
